Each structure is given as a SMILES string. Read-outs that look alike come from different tables or passages of the source. Where only a bound is given, the exact number is not on record here.

The text below walks through data of patent US20220048915A1 (SHANGHAI PHARMACEUTICALS HOLDING CO., LTD., priority 2018, published 2022).

Holding throughout (experiment): In vitro inhibition of p38 kinase (LANCE Ultra TR-FRET)
Type in all cases: biochemical

Assay [1] addresses p38α (Homo sapiens, UniProt Q16539).
Assay [2] concerns the target T1, p38γ (Homo sapiens, UniProt P53778).
T1 sequence (P53778 1-367): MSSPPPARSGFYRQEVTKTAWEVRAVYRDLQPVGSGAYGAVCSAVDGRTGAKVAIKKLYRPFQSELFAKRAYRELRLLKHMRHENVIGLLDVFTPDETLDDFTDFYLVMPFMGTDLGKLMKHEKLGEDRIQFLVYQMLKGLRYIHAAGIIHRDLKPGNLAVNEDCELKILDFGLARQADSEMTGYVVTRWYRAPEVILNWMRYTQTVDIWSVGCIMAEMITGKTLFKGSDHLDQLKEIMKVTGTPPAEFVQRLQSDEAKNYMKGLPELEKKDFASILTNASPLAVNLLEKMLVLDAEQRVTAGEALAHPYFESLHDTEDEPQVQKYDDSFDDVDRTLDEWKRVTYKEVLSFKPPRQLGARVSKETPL
On the procedure: 10 mM of the storage solution of the test compound was taken and placed in a 96-well compound plate, and using DMSO for the compound at an initial concentration of 100×, which was then used as the first concentration and then carried out a 3-fold gradient dilution with DMSO for a total of 10 concentrations. After that, 1 μL of gradient dilutions were added to 19 μL of 1× reaction buffer to prepare 5× compound for later use. […] To the compound-free control well was added 2 μL of the following liquid: 19 μL of 1× reaction buffer with addition of 1 μL of DMSO. To the Min control well was added 2 μL of 250 mM EDTA.
1× of LANCE® Detection value Buffer was used to prepare a 2×Antibody for use, and the amount was 5 μL per well, at the same time 10 mM EDTA was prepared for later use. After the enzyme reaction was carried out for 30 minutes, 5 μL 10 mM EDTA was added to the 384-well plate and the reaction was carried out at room temperature for 5 minutes. Afterwards, 5 μL LANCE® Ultra Europium-anti-phospho-eIF4E-binding protein 1 (Thr37/46) was added to the 384-well plate and the reaction was carried out at room temperature for one hour.

In assay [3] the target is p38β (Homo sapiens, UniProt Q15759).
p38β, sequence (Q15759 whole entry): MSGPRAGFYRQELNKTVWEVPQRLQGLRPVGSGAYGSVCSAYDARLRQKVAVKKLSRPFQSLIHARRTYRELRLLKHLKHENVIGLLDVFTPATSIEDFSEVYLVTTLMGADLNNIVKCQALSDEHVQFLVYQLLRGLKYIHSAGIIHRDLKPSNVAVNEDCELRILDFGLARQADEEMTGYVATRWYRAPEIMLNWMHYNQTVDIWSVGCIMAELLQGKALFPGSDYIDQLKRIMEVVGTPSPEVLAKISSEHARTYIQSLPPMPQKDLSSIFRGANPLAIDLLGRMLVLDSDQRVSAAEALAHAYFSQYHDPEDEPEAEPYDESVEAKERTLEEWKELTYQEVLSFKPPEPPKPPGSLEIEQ
Setting [4] is: read-out: Kinase in vitro IC50(nM) p38α.
[5] abbreviates: read-out: Kinase in vitro IC50(nM) p38γ.
Setting [6] is: read-out: Kinase in vitro IC50(nM) p38β.

p38α, sequence (Q16539 whole entry): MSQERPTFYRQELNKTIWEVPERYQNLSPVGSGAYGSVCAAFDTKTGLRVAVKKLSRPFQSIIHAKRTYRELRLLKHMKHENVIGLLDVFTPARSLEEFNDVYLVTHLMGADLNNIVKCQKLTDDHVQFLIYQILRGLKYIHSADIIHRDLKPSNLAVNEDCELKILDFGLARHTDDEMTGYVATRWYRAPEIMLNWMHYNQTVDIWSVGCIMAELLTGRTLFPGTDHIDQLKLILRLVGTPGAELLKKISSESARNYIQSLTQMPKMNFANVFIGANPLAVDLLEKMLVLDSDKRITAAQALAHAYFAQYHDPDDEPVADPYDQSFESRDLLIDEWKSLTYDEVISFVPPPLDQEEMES

The term IC50 denotes the concentration that inhibits the measured activity by half. With `O=c1ncn2nc(OC3CC(F)(F)C3)ccc2c1-c1c(Cl)cccc1Cl` [Compound I-1, 5-(2,6-dichlorophenyl)-2-(3,3-difluorocyclobutoxy)-6H-pyrimido[1,6-b]pyridazin-6-one], the IC50 in assay [1], in assay [2] and in assay [3] was greater than 3330 nM each time.
For `O=c1ncn2nc(OC3CCOCC3)ccc2c1-c1c(Cl)cccc1Cl` [Compound I-2, 5-(2,6-dichlorophenyl)-2-((tetrahydro-2H-pyran-4-yl)oxy)-6H-pyrimido[1,6-b]pyridazin-6-one], the IC50 is 2690 nM in assay [1] (setting [4]), greater than 3330 nM in assay [2] (setting [5]) and greater than 3330 nM in assay [3] (setting [6]).
As for `O=c1ncn2nc(OC3CCOC3)ccc2c1-c1c(Cl)cccc1Cl` (stereo not drawn) [Compound I-3, 5-(2,6-dichlorophenyl)-2-((tetrahydrofuran-3-yl)oxy)-6H-pyrimido[1,6-b]pyridazin-6-one], the IC50 in assay [1] (setting [4]), in assay [2] (setting [5]) and in assay [3] (setting [6]) was greater than 3330 nM throughout.
For `CCOc1ccc2c(-c3c(Cl)cccc3Cl)c(=O)ncn2n1` [Compound I-7, 5-(2,6-dichlorophenyl)-2-ethoxy-6H-pyrimido[1,6-b]pyridazin-6-one], the values for the half-maximal inhibitory concentration (IC50) in assay [1] (setting [4]), in assay [2] (setting [5]) and in assay [3] (setting [6]) were 1680 nM, greater than 3330 nM and greater than 3330 nM, respectively.
With `O=c1ncn2nc(OCC(F)F)ccc2c1-c1c(Cl)cccc1Cl` [Compound I-8, 5-(2,6-dichlorophenyl)-2-(2,2-difluoroethoxy)-6H-pyrimido[1,6-b]pyridazin-6-one], the IC50 in assay [1] (setting [4]), in assay [2] (setting [5]) and in assay [3] (setting [6]) was greater than 3330 nM throughout.
Consider `COc1ccc(Oc2ccc3c(-c4c(Cl)cccc4Cl)c(=O)ncn3n2)c(Cl)c1` [Compound I-9, 2-(2-chloro-4-methoxyphenoxy)-5-(2,6-dichlorophenyl)-6H-pyrimido[1,6-b]pyridazin-6-one], for which the IC50 in assay [1] (setting [4]) was 112 nM; in assay [2] (setting [5]), greater than 3330 nM; in assay [3] (setting [6]) it was 301 nM.
For the compound `Cc1ccc(Oc2ccc3c(-c4c(Cl)cccc4Cl)c(=O)ncn3n2)cc1F` [Compound I-11, 5-(2,6-dichlorophenyl)-2-(3-fluoro-4-methylphenoxy)-6H-pyrimido[1,6-b]pyridazin-6-one], the IC50 in assay [1] (setting [4]) is 137 nM; in assay [2] (setting [5]) it was greater than 3330 nM; in assay [3] (setting [6]) it was 1220 nM.
As for `O=c1ncn2nc(OCC(F)(F)F)ccc2c1-c1c(Cl)cccc1Cl` [Compound I-13, 5-(2,6-dichlorophenyl)-2-(2,2,2-trifluoroethoxy)-6H-pyrimido[1,6-b]pyridazin-6-one], the 50% inhibitory concentration (IC50) in assay [1] (setting [4]), in assay [2] (setting [5]) and in assay [3] (setting [6]) was greater than 3330 nM each time.
Consider `O=c1ncn2nc(NC3CC(F)(F)C3)ccc2c1-c1c(Cl)cccc1Cl` [Compound I-14, 5-(2,6-dichlorophenyl)-2-((3,3-difluorocyclobutyl)amino)-6H-pyrimido[1,6-b]pyridazin-6-one], for which the IC50 in assay [1] (setting [4]) was 1350 nM; in assay [2] (setting [5]) it was greater than 3330 nM; in assay [3] (setting [6]) it was greater than 3330 nM.
For the compound `O=c1ncn2nc(Oc3cncc(F)c3)ccc2c1-c1c(Cl)cccc1Cl` [Compound I-24, 5-(2,6-dichlorophenyl)-2-((5-fluoropyridin-3-yl)oxy)-6H-pyrimido[1,6-b]pyridazin-6-one], the IC50 in assay [1] (setting [4]) is 1980 nM; in assay [2] (setting [5]), greater than 3330 nM; in assay [3] (setting [6]) it was greater than 3330 nM.
For `O=c1ncn2nc(Oc3cccc(F)c3)ccc2c1-c1c(Cl)cccc1Cl` [Compound I-25, 5-(2,6-dichlorophenyl)-2-(3-fluorophenoxy)-6H-pyrimido[1,6-b]pyridazin-6-one], the values for the IC50 in assay [1] (setting [4]), in assay [2] (setting [5]) and in assay [3] (setting [6]) were 151 nM, greater than 3330 nM and 1430 nM, respectively.
Turning to `N#Cc1ccc(Oc2ccc3c(-c4c(Cl)cccc4Cl)c(=O)ncn3n2)cc1` [Compound I-26, 4-((5-(2,6-dichlorophenyl)-6-oxo-6H-pyrimido[1,6-b]pyridazin-2-yl)oxy)benzonitrile], the IC50 in assay [1] (setting [4]), in assay [2] (setting [5]) and in assay [3] (setting [6]) was greater than 3330 nM in each case.
In the case of `Cc1cc(F)ccc1Oc1ccc2c(-c3c(Cl)cccc3Cl)c(=O)ncn2n1` [Compound I-28, 5-(2,6-dichlorophenyl)-2-(4-fluoro-2-methylphenoxy)-6H-pyrimido[1,6-b]pyridazin-6-one], the IC50 is 38.8 nM in assay [1] (setting [4]), greater than 3330 nM in assay [2] (setting [5]) and greater than 3330 nM in assay [3] (setting [6]).
For the compound `O=c1ncn2nc(Oc3ccc(Cl)cc3)ccc2c1-c1c(Cl)cccc1Cl` [Compound I-33], the half-inhibitory concentration (IC50) in assay [1] (setting [4]) is 24 nM; in assay [2] (setting [5]) it was greater than 3330 nM; in assay [3] (setting [6]) it was 470 nM.
On the same counts, the results for `Cc1cc(Cl)ccc1Oc1ccc2c(-c3c(Cl)cccc3Cl)c(=O)ncn2n1` [Compound I-34, 2-(4-chloro-2-methylphenoxy)-5-(2,6-dichlorophenyl)-6H-pyrimido[1,6-b]pyridazin-6-one] are 49.8 nM, greater than 3330 nM and 389 nM.
For `O=c1ncn2nc(OC3C=CCCC3)ccc2c1-c1c(Cl)cccc1Cl` (stereo not drawn) [Compound I-37, 2-(cyclohex-2-en-1-yloxy)-5-(2,6-dichlorophenyl)-6H-pyrimido[1,6-b]pyridazin-6-one], the IC50 in assay [1] (setting [4]) was 503 nM; in assay [2] (setting [5]) it was greater than 3330 nM; in assay [3] (setting [6]) it was 2830 nM.
For the compound `O=c1ncn2nc(OC3CC=CC3)ccc2c1-c1c(Cl)cccc1Cl` [Compound I-38, 2-(cyclopent-3-en-1-yloxy)-5-(2,6-dichlorophenyl)-6H-pyrimido[1,6-b]pyridazin-6-one], the values for the concentration for half-maximal inhibition (IC50) in assay [1] (setting [4]), in assay [2] (setting [5]) and in assay [3] (setting [6]) were 414 nM, greater than 3330 nM and 2160 nM, respectively.
On to `CC(Oc1ccc2c(-c3c(Cl)cccc3Cl)c(=O)ncn2n1)c1ccc(F)cc1F` (stereo not drawn) [Compound I-41, 5-(2,6-dichlorophenyl)-2-(1-(2,4-difluorophenyl)ethoxy)-6H-pyrimido[1,6-b]pyridazin-6-one], for which the IC50 in assay [1] (setting [4]), in assay [2] (setting [5]) and in assay [3] (setting [6]) was greater than 3330 nM each time.
For the compound `O=c1ncn2nc(OC3CCCC=C3Cl)ccc2c1-c1c(Cl)cccc1Cl` (stereo not drawn) [Compound I-42, 2-((2-chlorocyclohex-2-en-1-yl)oxy)-5-(2,6-dichlorophenyl)-6H-pyrimido[1,6-b]pyridazin-6-one], the half-inhibitory concentration (IC50) in assay [1] (setting [4]) is 228 nM; in assay [2] (setting [5]), greater than 3330 nM; in assay [3] (setting [6]), 686 nM.
On the same counts, the results for `O=c1ncn2nc(Oc3ccc(F)cc3F)ccc2c1C1=CCCCC1` [Compound I-44, 5-(cyclohex-1-en-1-yl)-2-(2,4-difluorophenoxy)-6H-pyrimido[1,6-b]pyridazin-6-one] are 31 nM, greater than 3330 nM and 635 nM.
As for `Cc1cccc(C)c1-c1c(=O)ncn2nc(Oc3ccc(F)cc3F)ccc12` [Compound I-45, 2-(2,4-difluorophenoxy)-5-(2,6-dimethylphenyl)-6H-pyrimido[1,6-b]pyridazin-6-one], the half-maximal inhibitory concentration (IC50) was 35.4 nM in assay [1] (setting [4]), greater than 3330 nM in assay [2] (setting [5]) and 643 nM in assay [3] (setting [6]).
In the case of `O=c1ncn2nc(Oc3ccc(F)cc3F)ccc2c1-c1c(F)cccc1F` [Compound I-49, 2-(2,4-difluorophenoxy)-5-(2,6-difluorophenyl)-6H-pyrimido[1,6-b]pyridazin-6-one], the 50% inhibitory concentration (IC50) in assay [1] (setting [4]) was 14.1 nM; in assay [2] (setting [5]), greater than 3330 nM; in assay [3] (setting [6]), 213 nM.
Turning to `CNC(=O)c1ccc(Cl)c(-c2c(=O)ncn3nc(Oc4ccc(F)cc4F)ccc23)c1` [Compound I-51, 4-chloro-3-(2-(2,4-difluorophenoxy)-6-oxo-6H-pyrimido[1,6-b]pyridazin-5-yl)-N-methylbenzamide], the IC50 in assay [1] (setting [4]) was 17.5 nM; in assay [2] (setting [5]) it was greater than 3330 nM; in assay [3] (setting [6]), 256 nM.
With `O=c1ncn2nc(Oc3ccc(F)cc3F)ccc2c1-c1cccc(Cl)c1Cl` [Compound I-52, 5-(2,3-dichlorophenyl)-2-(2,4-difluorophenoxy)-6H-pyrimido[1,6-b]pyridazin-6-one], the IC50 in assay [1] (setting [4]) is 54.2 nM; in assay [2] (setting [5]), greater than 3330 nM; in assay [3] (setting [6]), 947 nM.
For the compound `COC(=O)c1ccc(OC)c(-c2c(=O)ncn3nc(Oc4ccc(F)cc4F)ccc23)c1` [Compound I-55, methyl 3-[2-(2,4-difluorophenoxy)-6-oxo-pyrimido[1,6-b]pyridazin-5-yl]-4-methoxybenzoate], the half-inhibitory concentration (IC50) was 17.7 nM in assay [1] (setting [4]), greater than 3330 nM in assay [2] (setting [5]) and 117 nM in assay [3] (setting [6]).
For the compound `O=c1ncn2nc(Oc3ccc(F)cc3F)ccc2c1-c1ccc(Cl)cc1Cl` [Compound I-56, 5-(2,4-dichlorophenyl)-2-(2,4-difluorophenoxy)-6H-pyrimido[1,6-b]pyridazin-6-one], the figures for the IC50 in assay [1] (setting [4]), in assay [2] (setting [5]) and in assay [3] (setting [6]) were 19.6 nM, greater than 3330 nM and 479 nM, respectively.
